Data taken from PubChem BioAssay (NCI).
Several values for one entry are separate records, joined by “and”; a condition that tells them apart may be missing. Equal values may be shown once.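 Tested at 5 concentrations; 48 h exposure; 96-well plates; endpoints linearly interpolated, else capped at highest concentration. The concentration for 50% growth inhibition is given as GI50. Definition used: TGI = concentration required for complete inhibition of growth.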

Experiments:
Assay in all cases: inhibition of tumour cell growth, NCI panel, 48 h
NCI-H226 lung = test system: NCI-H226 lung
LOX IMVI melanoma = test system: LOX IMVI melanoma
SR leukemia = test system: SR leukemia
NCI-H522 lung = test system: NCI-H522 lung
EKVX NSCLC = test system: EKVX NSCLC
RXF 393 renal = test system: RXF 393 renal
RPMI-8226 leukemia = test system: RPMI-8226 leukemia
K-562 leukemia = test system: K-562 leukemia
OVCAR-5 ovarian = test system: OVCAR-5 ovarian
786-0 renal = test system: 786-0 renal

Structure (SMILES) | TGI (NCI-H226 lung) | TGI (LOX IMVI melanoma) | TGI (SR leukemia) | TGI (NCI-H522 lung) | TGI (EKVX NSCLC) [µM] | TGI (RXF 393 renal) | TGI (RPMI-8226 leukemia) | TGI (K-562 leukemia) | TGI (OVCAR-5 ovarian) | TGI (786-0 renal) | GI50 (NCI-H226 lung) | GI50 (LOX IMVI melanoma) | GI50 (SR leukemia) | GI50 (EKVX NSCLC) [µM] | GI50 (RXF 393 renal) | GI50 (RPMI-8226 leukemia) | GI50 (OVCAR-5 ovarian) | GI50 (786-0 renal) | GI50 (NCI-H522 lung) [µM] | GI50 (K-562 leukemia) [µM]
O=C(O)c1ccc(CNCc2ccccc2)cc1 | > 100 µM | > 100 µM | > 100 µM | > 100 µM | > 100 | > 100 µM | > 100 µM | > 100 µM | > 100 µM | > 100 µM | – | – | – | – | – | – | – | – | – | –
Cc1cc(C(=O)CSC(=S)SC(C)(C)C)ccc1Cl | 42.7 µM | 45 µM | 46.9 µM | 30.3 µM | 56.8 | 29 µM | 52.1 µM | > 100 µM | 43.9 µM | 74.4 µM | – | – | – | – | – | – | – | – | – | –
COc1c(C)c(OCC=C(C)C)cc(CO)c1CO | > 100 µM | > 100 µM | > 100 µM | > 100 µM | > 100 | 78.2 µM | > 100 µM | > 100 µM | > 100 µM | > 100 µM | – | – | – | – | – | – | – | – | – | –
Oc1oc(C(=C2N=c3ccccc3=N2)c2ccc(Cl)cc2)c(O)c1-c1ccc(Cl)cc1 | 6.81 µM | 10.1 µM | 12.6 µM | 6.18 µM | 7.41 | 6.8 µM | 8.12 µM | > 100 µM | 6.89 µM | > 100 µM | – | – | – | – | – | – | – | – | – | –
C/C(=N\NC(N)=O)c1sc(-c2nc(C)c(/C(C)=N/NC(N)=O)s2)nc1C | > 100 µM | > 100 µM | 43.5 µM | > 100 µM | > 100 | > 100 µM | > 100 µM | > 100 µM | > 100 µM | > 100 µM | – | – | – | – | – | – | – | – | – | –
CCn1cc(-c2ccnc3[nH]c(-c4cccc(CN(C)C)c4)cc23)c(-c2ccc(NC(=O)N(C)C)cc2)n1 | 16.2 µM and > 10 µM | 1.88 µM and 5.2 µM | 6.58 µM and 3.28 µM | 20 µM and > 10 µM | > 10 | 5.54 µM and > 10 µM | 15.6 µM and > 10 µM | 17.2 µM and 2.96 µM | 14.6 µM and > 10 µM | 20.3 µM and > 10 µM | 0.25 µM and 0.451 µM | 0.297 µM and 0.239 µM | 0.122 µM and 0.031 µM | 3.87 | 0.356 µM and 1.18 µM | 1.69 µM and 1.32 µM | 1.56 µM and 4.74 µM | 2.79 µM and 2.59 µM | – | –
COc1ccc(CNc2c3ccccc3nc3ccccc23)cc1F | 10.4 µM | 3.63 µM | 9.37 µM | 6.45 µM | 14.5 | 4.82 µM | 7.25 µM | 12.3 µM | 13.5 µM | 13.7 µM | 2.85 µM | 1.76 µM | 2.49 µM | 3.59 | 1.8 µM | 2.64 µM | 3.52 µM | 3.6 µM | 2.01 | 2.94
COc1ccc(/C=C\c2cc(OC)c(OC)c(OC)c2)cc1OCC(=O)O | 48.2 µM | > 100 µM | > 100 µM | 9.01 µM | > 100 | 39.2 µM | > 100 µM | > 100 µM | > 100 µM | > 100 µM | – | – | – | – | – | – | – | – | – | –
Cc1cccc(NC2=C(Cl)C(=O)c3nc(C)ccc3C2=O)c1 | 2.78 µM | 1.46 µM | > 100 µM | 4.88 µM | 2.8 | 2.84 µM | 5.17 µM | > 100 µM | 3.61 µM | 3.36 µM | 1.1 µM | 0.351 µM | 1.22 µM | 1.47 | 1.46 µM | 1.48 µM | 1.82 µM | 1.79 µM | 1.81 | 0.45
O=[N+]([O-])c1ccccc1N=Nc1c(O)[nH]c2c(Cl)cc(Cl)cc12 | > 100 µM | > 100 µM | 22.6 µM | > 100 µM | 99.5 | > 59.8 µM | > 100 µM | > 100 µM | > 100 µM | 39 µM | – | – | – | – | – | – | – | – | – | –
CCN(CCNS(C)(=O)=O)c1ccc(N)c(C)c1 | 32.2 µM | 12.4 µM | 23.8 µM | 3.46 µM | – | 8.85 µM | 8.32 µM | 18.4 µM | 28.2 µM | 21.9 µM | 15.2 µM | 3.48 µM | 5.14 µM | – | 2.71 µM | 3.16 µM | 13.6 µM | 9.76 µM | 2 | 3.39
O=c1cccc(C#CC#C[C@@H]2O[C@H]2CO)o1 | 1.4 µM | 1.73 µM | > 100 µM | – | 3.43 | 3.98 µM | 5.49 µM | > 100 µM | 1.88 µM | 1.43 µM | 0.627 µM | 0.797 µM | 0.621 µM | 1.79 | 1.77 µM | 1.7 µM | 0.49 µM | 0.626 µM | 0.814 | 1.49
O=c1[nH]c(O)c(C=Nc2ccc(-c3nc4ccccc4o3)cc2)c(=O)[nH]1 | > 100 µM | 58.9 µM | > 100 µM | > 100 µM | > 100 | > 100 µM | > 100 µM | > 100 µM | > 100 µM | > 100 µM | 90.3 µM | 25.3 µM | 44.5 µM | > 100 | 89 µM | 27.5 µM | > 100 µM | 32.9 µM | 30.9 | 35
C=CC12CCN(CC1)C(C(O)c1ccnc3ccc(OC)cc13)C2 (configuration not stated) | > 100 µM | > 100 µM | > 100 µM | > 100 µM | > 100 | > 100 µM | > 100 µM | > 100 µM | > 100 µM | > 100 µM | > 100 µM | 15.4 µM | > 100 µM | > 100 | 80 µM | > 100 µM | > 100 µM | > 100 µM | 47.8 | > 100
CSC[C@H](NC(=O)COc1cccc2cnccc12)C(=O)NC(Cc1ccccc1)C(O)C(=O)N1CSC[C@H]1C(=O)NC(C)(C)C (some centres not stated) | > 100 µM | > 100 µM | > 100 µM | > 100 µM | – | 99.8 µM | > 100 µM | > 100 µM | > 100 µM | > 100 µM | – | – | – | – | – | – | – | – | – | –
COc1cccc2c1O/C(=C\c1ccc([N+](=O)[O-])s1)C2=O | > 100 µM | > 100 µM | 2.93 µM | 0.766 µM | – | > 25.3 µM | > 20.6 µM | 3.05 µM | > 100 µM | > 100 µM | > 80.6 µM | 3.15 µM | 0.279 µM | – | 2.6 µM | 1.7 µM | > 100 µM | > 20.6 µM | 0.241 | 0.349
